{"source": "patent US20030166202A1", "about": "“P450 Monooxygenases of the cyp79 family” (priority 2000, published 2003)", "key": {"CYP79E1": {"target": "T1, CYP79E1 (Manihot esculenta, UniProt Q9M7B8)", "T1 construct": "A full length construct (CYP79E1na) encoding native CYP79E1 with silent mutations introduced at codons 3 and 5; made in house; host or cells: E. coli JM109 (vector pSP19g10L)", "T1 sequence (Q9M7B8 whole entry)": "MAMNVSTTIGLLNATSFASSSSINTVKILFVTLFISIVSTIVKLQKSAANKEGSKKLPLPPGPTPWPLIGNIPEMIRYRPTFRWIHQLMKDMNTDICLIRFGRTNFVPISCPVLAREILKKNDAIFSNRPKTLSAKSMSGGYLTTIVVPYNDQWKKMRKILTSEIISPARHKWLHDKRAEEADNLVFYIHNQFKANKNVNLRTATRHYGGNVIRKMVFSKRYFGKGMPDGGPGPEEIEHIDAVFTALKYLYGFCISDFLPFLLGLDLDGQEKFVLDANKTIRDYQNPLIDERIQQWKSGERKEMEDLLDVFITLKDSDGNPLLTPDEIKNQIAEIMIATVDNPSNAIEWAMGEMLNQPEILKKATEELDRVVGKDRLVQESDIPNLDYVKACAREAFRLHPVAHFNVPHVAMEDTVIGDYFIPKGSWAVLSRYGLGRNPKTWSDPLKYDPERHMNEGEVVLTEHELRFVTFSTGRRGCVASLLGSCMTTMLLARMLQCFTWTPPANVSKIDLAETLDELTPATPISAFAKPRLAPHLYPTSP", "assay": "Substrate specificity / reconstitution of CYP79E1", "assay_type": "biochemical, Triglochin maritima", "method": "(§1) Investigations into the substrate specificity of CYP79D1, CYP79D2, CYP79E1, CYP79E2, CYP79A2, CYP79B2, CYP79B5 and CYP79F1 are carried out in E. coli spheroplasts reconstituted with sorghum NADPH-cytochrome P450 oxidoreductase in the presence of high amounts of lipids. L-α-dioleyl phosphatidyl choline and L-α-dilauroyl phosphatidyl choline are preferred lipids for the reconstitution. […] Neither L-methionine, L-tryptophane nor L-tyrosine are metabolized by CYP79A2. Neither phenylalanine nor tyrosine are metabolized by CYP79B2. Neither L-tryptophane, L-phenylalanine nor L-tyrosine are metabolized by CYP79F1. D-Amino acids are not converted into oximes by CYP79D1, CYP79D2, CYP79E1 and CYP79E2. Depending on the nature of the substrate, substrate specificity may also be determined using intact P. pastoris cells or intact E. coli cells.\n(§2) Expression levels of the different constructs are determined by CO difference spectroscopy and quantified using an extinction coefficient ε450-490 of 91 mM^−1cm^−1 (Omura et al, J. Biol. Chem. 239: 2370-2378, 1964). Spectra are made from 100 μl or 500 μl whole E. coli cells or using the rich phases from Triton X-114 phase partitioning solubilized in 50 mM KH2PO4/K2HPO4 pH 7.5, 2 mM EDTA, 20% glycerol, 0.2% Triton X-100 (total volume: 1 ml). […] In vitro activities are measured in reconstitution experiments using the rich phase from phase partitioning. […]"}, "CYP79E2": {"tested_on": "CYP79E2", "assay": "Substrate specificity / reconstitution of CYP79E2", "assay_type": "biochemical, Triglochin maritima", "method": "as §1, §2"}, "CYP79B2": {"target": "T2, CYP79B2 (Arabidopsis thaliana, UniProt O81346)", "T2 sequence (O81346 1-541)": "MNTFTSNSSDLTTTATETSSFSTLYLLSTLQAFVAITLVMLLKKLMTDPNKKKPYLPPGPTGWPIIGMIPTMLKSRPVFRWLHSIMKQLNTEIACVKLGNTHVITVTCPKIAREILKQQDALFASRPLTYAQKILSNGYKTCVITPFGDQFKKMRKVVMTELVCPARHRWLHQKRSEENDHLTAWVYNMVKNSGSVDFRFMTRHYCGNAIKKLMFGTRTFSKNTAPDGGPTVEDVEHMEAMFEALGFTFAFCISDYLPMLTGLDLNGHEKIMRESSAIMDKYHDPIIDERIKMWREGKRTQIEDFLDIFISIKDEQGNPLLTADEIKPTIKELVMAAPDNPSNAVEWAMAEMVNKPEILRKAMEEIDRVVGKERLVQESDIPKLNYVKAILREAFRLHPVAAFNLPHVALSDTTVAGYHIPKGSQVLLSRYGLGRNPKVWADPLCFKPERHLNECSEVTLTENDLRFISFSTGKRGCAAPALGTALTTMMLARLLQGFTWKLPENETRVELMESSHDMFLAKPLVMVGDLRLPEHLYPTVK", "assay": "CYP79B2 activity in E. coli spheroplasts reconstituted with NADPH:cytochrome P450 reductase", "settings": "radiolabelled amino acid, TLC", "quoted_text": "The activity of CYP79B2 is measured by reconstituting spheroplasts from E. coli expressing CYP79B2 with purified NADPH:cytochrome P450 reductase from Sorghum bicolor (L.) Moench. […] The reaction is incubated at 34° C. for 30 minutes, extracted two times with ethyl acetate and the ethyl acetate phase is analyzed by TLC using toluen:ethyl acetate 5:1 as eluent. Radiolabelled bands are visualized on a Storm 840 phosphorimager (Molecular Dynamics) and quantified with ImageQuant analysis software (Molecular Dynamics). Substrate specificity is investigated by substituting the ^14C-labelled tryptophan with ^14C-labelled tyrosine or phenylalanine. GC-MS is employed to verify the structure of the compound produced from tryptophan by recombinant CYP79B2. A 450 μl reaction mixture as described above containing 2 mM unlabelled tryptophan is incubated at 34° C. for 2 hours. The reaction mixture is extracted twice with 300 μl CHCl3 and lyophilized until dryness. GC-MS is performed with an HP5890 Series II gas chromatograph coupled to a Jeol JMS-AX505W mass spectrometer. Splitless injection on an SGE column (BPX5, 25 mm×0.25 mm, 0.25 μm film thickness) and a head pressure of 100 kPa are used.\nSingle colonies are grown overnight at 37° C. in LB medium containing 100 μg/ml ampicillin. 1 ml of the overnight culture is used to inoculate 75 ml TB medium containing 100 μg/ml ampicillin, 75 μg/ml δ-aminolevulinic acid, 1 mM thiamine and 1 mM IPTG. The TB cultures are grown for 44 hours at 125 rpm and 28° C."}, "[1]": {"settings": "with NADPH, NADPH-cytochrome P450 oxidoreductase, CYP71E1"}}}
{"compound": "N[C@@H](Cc1ccc(O)cc1)C(=O)O", "note": "[L-tyrosine]", "values": [{"measurement": "conversion to the corresponding oxime by CYP79E1", "setting": "CYP79E1", "result": "found to convert"}, {"measurement": "product accumulation in reconstitution of CYP79E1 with CYP71E1", "setting": "CYP79E1; [1]", "result": "considerable amounts of p-hydroxyphenylacetonitrile and p-hydroxybenzaidehyde accumulate"}, {"measurement": "conversion to the corresponding oxime by CYP79E2", "setting": "CYP79E2", "result": "found to convert"}, {"measurement": "product accumulation in reconstitution of CYP79E2 with CYP71E1", "setting": "CYP79E2; [1]", "result": "considerable amounts of p-hydroxyphenylacetonitrile and p-hydroxybenzaidehyde accumulate"}, {"measurement": "oxime production by CYP79B2", "setting": "CYP79B2", "result": "No oxime producing activity is detected"}]}
